The record followed here is publication PMC10447463, “Data-mining unveils structure–property–activity correlation of viral infectivity enhancing self-assembling peptides” (Nature Communications, 2023).

Data set [1] has as its system HIV-1 infection of TZM-bl cells. In words: HIV-1 infectivity enhancement assay, β-galactosidase luminescence. The following applies: for Rel-EFC / Log10 Infection Rel EFC: 1.3 µM peptide; for Rel-EFC: infection relative to EF-C (QCKIKQIINMWQ = 1); for Log10 Infection Rel EFC: log10 of infection relative to EF-C; for Log Infectivity: Log10 infection relative to EF-C, TZM-bl cells, asymmetric std dev errors; for Log10 Infection Rel EF-C: HIV-1 infection of TZM-bl cells; for Log10 of Rel to EFC (Feb2021): Log10 of infection relative to EF-C, all peptides of FigS16; for Abs. Inf. / RLU s-1: absolute infection rate, peptide 1.3 µM on cells, virus preincubated 10 min with fibrils, read 3 days post infection; for Abs. Inf. / RLU s-1 / Abs. Infection at 0.26 µM: mean of triplicate; for Abs. Infection at 0.26 µM: peptide 0.26 µM. The data set is classed as cell-based.

Data set [2] is described as follows: β-sheet content by ATR-FT-IR. The data set is classed as physicochemical. The note with it: for b -sheet / %: Fig. S7 panel A, β-sheet content by ATR-FT-IR. The method, boiled down:
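To obtain β-sheet content, 1 mg/mL PNF solutions are freeze-dried and the powders recorded by ATR FT-IR at 2 cm^-1 resolution with 64 scans. Free monomer for CR is removed by 3 kDa MWCO centrifugation at 4 °C, and amines in filtrate and unfiltered material are detected with fluorescamine.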

Data set [3] can be described thus: Zeta-potential measurement. The data set is classed as physicochemical. The note with it: for Zeta pot. / mV: 1 mg/mL in PBS pH 7.4 from 10 mg/mL DMSO stock, 1 d RT, 60 µL diluted in 600 µL 1 mM KCl, Zetasizer Nano ZS, Smoluchowski, mean of triplicate; for Zeta-Pot.: zeta potential of peptide assemblies. The method, boiled down:
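Zeta potentials of aggregated peptides come from electrophoretic mobility (Smoluchowski model) in 1 mM KCl after a 1 d RT incubation at 1 mg/mL in PBS, pH 7.4.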

A short description of data set [4]: Turbidity, derived count rate of scattered light. It is filed as physicochemical. The note with it: for Count Rate / kcps: derived count rate of scattered light at 633 nm, 173°, from zeta-potential measurement, 0.1 mg/mL in 1 mM KCl after 1 d at 1 mg/mL in PBS, turbidity / microscopic aggregation, mean of triplicate. The method, boiled down:
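Samples: 1 mg/mL in PBS pH 7.4 (from DMSO), 1 d at RT, then diluted in 1 mM KCl immediately before measurement. Triplicates, two independent runs averaged.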

The nature of data set [5]: Conversion rate (CR) assay with fluorescamine. The note with it: conversion rate, fluorescamine assay; for CR / %: Fig. S7 panel B. The arrangement: key to CR: % = 100−100×filtrate/original fluorescence intensity. It is filed as physicochemical. As to the method:
For ATR FT–IR spectroscopy measurements, 200 µL of the respective 1 mg/mL PNF solution was lyophilized and the resulting powder used for measurement. All spectra were recorded on a Bruker Tensor 27 spectrometer with a diamond crystal as ATR element (PIKE MiracleTM, spectral resolution 2 cm^-1). Every sample was measured with 64 scans. Data were analyzed with OriginLab software and calculation of β–sheet content was conducted according to a previous report. TEM. For TEM measurements 5 µL of PNF fibrils (1 mg/mL) were placed on copper grids coated with carbon and formvar layer (300 mesh, Plano GmbH). After 10 min incubation time, the grids were staining with 4% uranyl acetate solution for 2.5 min and washed with water. Measurements were performed on a Jeol 1400 electron microscope with 120 kV acceleration voltage. CR Assay. For the determination of the amount of peptide monomer converting into nanostructures the amine reactive dye fluorescamine was used analogous to a previous reported protocol. Briefly, 100 µL of the preformed PNF solution was centrifuged in a Vivaspin 500 tube (3 kDa MWCO) to separate fibers from free peptide monomer (16200 x g, 4 °C, 45 min). The filtrate and 100 μL of the non-filtered PNF sample were lyophilized and dissolved in 30 μL DMSO. 10 μL of the filtrate and non-filtered DMSO samples were submitted in a black UV Star® 384 microliter well–plates (Greiner bio–one) and 3 μL of the fluorescamine solution (10 mg/mL, DMSO) was added to measure the fluorescence enhancement. After 20 min of incubation at RT, fluorescence was recorded on an Infinite® M1000 PRO microplate reader (Tecan) at λem = 470 nm upon excitation at λex = 365 nm with 10 nm bandwidths and multiple reads per well (3×3). Measurements were repeated in triplicates and averaged with standard deviation. All values were calculated as n-fold fluorescence enhancement (DMSO only as a reference was set to 1). The conversion rate CR was defined according to the equation Eq. (3).3 CR=100−100×fluorescenceintensityfiltrate/fluorescenceintensityoriginal[%]

The mark [6] stands for this setting: Fig. S7 panel A (plotted against β-sheet content).
Where [7] appears, read: Fig. S7 panel B (plotted against CR), rounded to two decimals.
Setting [8] is: Log10 of infection rate relative to EF-C, Figure 3A source data.
[9] abbreviates: infection rate relative to EF-C, log10, data of Figure 2D.
The mark [10] stands for this setting: infection rate relative to EF-C, log10, source data of Figure 2C.
The mark [11] stands for this setting: zeta-potential of peptide, source data of Figure 2C.
The mark [12] stands for this setting: zeta-potential of the peptide assemblies, mean, Figure 3A source data.
[13] abbreviates: Log10 of derived count rate of scattered light (turbidity).
[14] abbreviates: log10 of derived count rate of scattered light (turbidity).
Where [15] appears, read: logarithm of count rate in kcps.
Where [16] appears, read: turbidity, Log10 of derived count rate of scattered light, Figure 3A source data.

Where “and” joins values, the source holds several entries; their conditions need not be identical. Identical values can stand only once.

CKIKIQI: in data set [1], the Rel-EFC is 1,02. Further, in data set [1], the “Log10 Infection Rel EFC” value is on record as 0,01. Moreover, the “Log Infectivity” value in data set [1] (setting [6]) was 0.0081; in data set [1] (setting [7]), 0.01. The “Log10 Infection Rel EF-C” value turned out to be 0.01 in data set [1] (setting [8]), 0.0081 in data set [1] (setting [9]) and 0.0081 in data set [1] (setting [10]). Further, in data set [1], the “Log10 of Rel to EFC (Feb2021)” value amounted to 0.01. Further, the “Abs. Inf. / RLU s-1” value in data set [1] is on record as 19406.66667 RLU s-1. In addition, the “Abs. Infection at 0.26 µM” value in data set [1] was found to be 4967. In data set [1] (peptide 1.3 µm (so in the source), mean of the 3 replicates), the “Infection RLU/s, 1.3 µm abs” value was 19406.66667 RLU/s. For the same substance, in data set [2], the “FTIR ß-sheet content” value is reported as 53%. In addition, in data set [2], the “b -sheet / %” value is 53%. Moreover, the “Zeta pot. / mV” value in data set [3] is 12.8 mV. For the same substance, the Zeta-Pot. in data set [3] amounted to 12.8. The “Zeta-Potential / mV” value stood at 13.2 mV in data set [3] (setting [11]) and 12.8 mV in data set [3] (setting [12]). For the same substance, the “Log10 Count Rate” value in data set [4] (setting [13]), in data set [4] (setting [14]), in data set [4] (setting [15]) and in data set [4] (setting [16]) was 3.386 each time. In addition, in data set [4], the “Count Rate / kcps” value was 2432 ± 1342 kcps and 2433 kcps. Besides, the “Zeta Count Rate” value in data set [4] (mean of the 3 replicates) is 2432.9 kcps; in data set [4] (replicate 2) it was 1640.5 kcps; in data set [4] (replicate 3), 4323.3 kcps. This substance gave a CR / % in data set [5] of 54%. This substance came in with a CR in data set [5] of 54.

With CKIKIQINM, the Rel-EFC in data set [1] was 1,59. The “Log10 Infection Rel EFC” value in data set [1] was 0,2. The results for the “Log Infectivity” value in data set [1] (setting [6]) and in data set [1] (setting [7]) were 0.2012 and 0.2, respectively. For the same substance, the “Log10 Infection Rel EF-C” value was found to be 0.2 in data set [1] (setting [8]), 0.2012 in data set [1] (setting [9]) and 0.2012 in data set [1] (setting [10]). The “Log10 of Rel to EFC (Feb2021)” value in data set [1] is on record as 0.2. The “b -sheet / %” value in data set [2] was 42.84%. In addition, the Zeta-Pot. in data set [3] is listed as 16.83. Also, the “Zeta-Potential / mV” value is 14.3 mV in data set [3] (setting [11]) and 16.83 mV in data set [3] (setting [12]). In addition, the “Log10 Count Rate” value in data set [4] (setting [13]), in data set [4] (setting [14]) and in data set [4] (setting [16]) was 3.626 each time. The “Count Rate / kcps” value in data set [4] stood at 4228 kcps. For the same substance, the CR / % in data set [5] was 75.5%. In data set [5], this substance yielded a CR of 75.5.

As for CKIKIQIRGD, the Rel-EFC in data set [1] is 0,33. Besides, the “Log10 Infection Rel EFC” value in data set [1] is reported as -0,48. For the same substance, the “Log Infectivity” value in data set [1] (setting [6]) is recorded as -0.4842; in data set [1] (setting [7]), -0.48. Also, the “Log10 Infection Rel EF-C” value in data set [1] (setting [8]) is recorded as -0.48; in data set [1] (setting [9]), -0.4842; in data set [1] (setting [10]), -0.4842. For the same substance, in data set [1], the “Log10 of Rel to EFC (Feb2021)” value is recorded as -0.48. Further, the “b -sheet / %” value in data set [2] came out at 58.14%. Further, the Zeta-Pot. in data set [3] worked out at 7.157. Further, the “Zeta-Potential / mV” value in data set [3] (setting [11]) was found to be 7.157 mV; in data set [3] (setting [12]), 7.16 mV. In addition, the “Log10 Count Rate” value in data set [4] (setting [13]), in data set [4] (setting [14]) and in data set [4] (setting [16]) was 3.762 in each case. In addition, the “Count Rate / kcps” value in data set [4] came to 5777 kcps. Moreover, the CR / % in data set [5] is listed as 91%. For the same substance, the CR in data set [5] was determined as 91.

Regarding CKIKQII, the Rel-EFC in data set [1] was 0,04. In data set [1], the “Log10 Infection Rel EFC” value was -1,38. Also, the “Log Infectivity” value is reported as -1.379 in data set [1] (setting [6]) and -1.38 in data set [1] (setting [7]). For the same substance, the results for the “Log10 Infection Rel EF-C” value in data set [1] (setting [8]), in data set [1] (setting [9]) and in data set [1] (setting [10]) were -1.38, -1.379 and -1.379, respectively. For the same substance, the “Abs. Inf. / RLU s-1” value in data set [1] came to 796.7 RLU s-1. In addition, the “Abs. Infection at 0.26 µM” value in data set [1] is on record as 430. The “b -sheet / %” value in data set [2] was 25%. Besides, in data set [3], the “Zeta pot. / mV” value is -3.83 mV. Further, in data set [3], the Zeta-Pot. was -3.83. The “Zeta-Potential / mV” value in data set [3] (setting [11]) is 5.568 mV; in data set [3] (setting [12]), -3.83 mV. Moreover, the “Log10 Count Rate” value in data set [4] (setting [13]), in data set [4] (setting [14]), in data set [4] (setting [15]) and in data set [4] (setting [16]) was 1.873 each time. For the same substance, the “Count Rate / kcps” value in data set [4] was 74 ± 27 kcps and 75 kcps. Further, in data set [5], the CR / % was 55%. In data set [5], this substance showed a CR of 55.
